Reference: the supplement of paper PMC10307832

Columns and labels:
Assay in all cases: relative viability (nuclei count vs DMSO), 5 days (fraction); higher = more cells survive
MLN4924 + Vorinostat = compound: NS(=O)(=O)OC[C@@H]1C[C@@H](n2ccc3c(N[C@H]4CCc5ccccc54)ncnc32)C[C@@H]1O [MLN4924] + O=C(CCCCCCC(=O)Nc1ccccc1)NO [Vorinostat] (partner 1 µM)
Method in brief: (§1)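 Cells from lung cancer lines were seeded into 1536-well plates and, one day later, dosed by pin tool. Treatments were either a single drug or a fixed dose of an anchor drug with five library-drug doses (not always all listed) in √10 steps. After 5 days, nuclei were stained in a one-step fixation (final 0.05% Triton X-100, 1% formaldehyde, 1 ug/ml Hoechst) and counted on 4× images, and relative viability is the treated-to-vehicle nuclei ratio, as the median of duplicate plates.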

MLN4924 + Tozasertib = compound: NS(=O)(=O)OC[C@@H]1C[C@@H](n2ccc3c(N[C@H]4CCc5ccccc54)ncnc32)C[C@@H]1O [MLN4924] + Cc1cc(Nc2cc(N3CCN(C)CC3)nc(Sc3ccc(NC(=O)C4CC4)cc3)n2)n[nH]1 [Tozasertib] (partner 0.1 µM)
Method in brief: as §1

GSK126 + Dasatinib = compound: CC[C@H](C)N1C=C(C2=C(C=C(C=C21)C3=CN=C(C=C3)N4CCNCC4)C(=O)NCC5=C(C=C(NC5=O)C)C)C [GSK126] + Cc1nc(Nc2ncc(C(=O)Nc3c(C)cccc3Cl)s2)cc(N2CCN(CCO)CC2)n1 [Dasatinib] (partner 0.075 µM)
Method in brief: as §1

MLN4924 + Trametinib = compound: NS(=O)(=O)OC[C@@H]1C[C@@H](n2ccc3c(N[C@H]4CCc5ccccc54)ncnc32)C[C@@H]1O [MLN4924] + CC(=O)Nc1cccc(-n2c(=O)n(C3CC3)c(=O)c3c(Nc4ccc(I)cc4F)n(C)c(=O)c(C)c32)c1 [Trametinib] (partner 0.02 µM)
Method in brief: as §1

Work on UMC-11 yielded a relative viability (MLN4924 + Vorinostat; first compound 0.04 µM) of 0.173, a relative viability (MLN4924 + Vorinostat; first compound 0.1265 µM) of 0.169 and a relative viability (MLN4924 + Vorinostat; first compound 0.4 µM) of 0.19. The relative viability (MLN4924 + Vorinostat; first compound 1.265 µM) was 0.144, the relative viability (MLN4924 + Vorinostat; first compound 4 µM) was 0.116 and the relative viability (MLN4924 + Tozasertib; first compound 0.04 µM) was 0.205. The relative viability (MLN4924 + Tozasertib; first compound 0.1265 µM) was 0.212, the relative viability (MLN4924 + Tozasertib; first compound 0.4 µM) was 0.215 and the relative viability (MLN4924 + Tozasertib; first compound 1.265 µM) was 0.19. The relative viability (MLN4924 + Tozasertib; first compound 4 µM) was 0.184, the relative viability (GSK126 + Dasatinib; first compound 0.08 µM) was 0.512 and the relative viability (GSK126 + Dasatinib; first compound 0.253 µM) was 0.475. The relative viability (GSK126 + Dasatinib; first compound 0.8 µM) was 0.443, the relative viability (GSK126 + Dasatinib; first compound 2.53 µM) was 0.417 and the relative viability (GSK126 + Dasatinib; first compound 8 µM) was 0.437. For the same cell line, the relative viability (MLN4924 + Trametinib; first compound 0.04 µM) was 0.487, the relative viability (MLN4924 + Trametinib; first compound 0.1265 µM) was 0.367 and the relative viability (MLN4924 + Trametinib; first compound 0.4 µM) was 0.253. The relative viability (MLN4924 + Trametinib; first compound 1.265 µM) was 0.115 and the relative viability (MLN4924 + Trametinib; first compound 4 µM) was 0.142.
